Results reported in US5945433A, “Quinoline derivatives containing a diol as leukotriene antagonists” (Leo Pharmaceutical Products, Ltd. A/S, priority 1995, dated 1999).
Several values for one entry are separate records, joined by “and”; a condition that tells them apart may be missing. Identical values can stand only once. Like-named read-outs stand apart in the source and are kept apart here.

Legend:
LTD4 receptor = molecular target: T1, LTD4 receptor (Cavia porcellus, UniProt Q2NNR5); assay: Receptor binding: direct competition with [^3 H]LTD4 on guinea-pig lung membranes; details: mean ± SD (n) or individual values
T1 construct: from tissue; host or cells: guinea-pig lung membranes
T1 sequence (Q2NNR5 1-340): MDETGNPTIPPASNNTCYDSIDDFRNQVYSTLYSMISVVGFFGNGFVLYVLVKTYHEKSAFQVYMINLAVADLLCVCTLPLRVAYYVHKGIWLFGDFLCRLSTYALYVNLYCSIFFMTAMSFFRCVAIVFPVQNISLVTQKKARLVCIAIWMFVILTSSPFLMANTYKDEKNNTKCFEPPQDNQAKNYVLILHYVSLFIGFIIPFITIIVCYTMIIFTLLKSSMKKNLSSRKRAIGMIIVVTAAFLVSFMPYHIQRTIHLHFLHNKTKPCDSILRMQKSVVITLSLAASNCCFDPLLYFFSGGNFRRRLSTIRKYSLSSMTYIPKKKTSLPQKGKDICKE
Procedure: It is of importance to investigate the receptor binding properties of leukotriene antagonists in relation to their inhibition of smooth muscle contraction. Receptor binding studies may be performed with guinea-pig lung membranes in a direct competition assay between a leukotrien antagonist and [^3 H]LTD4 for binding to the LTD4 receptor^3,4. A pIC50 value is determined as the negative logarithm of the molar concentration of antagonist inhibiting [^3 H]LTD4 binding by 50%. The pIC50 values for the compounds of the present invention are equal to or higher than those for the reference compound SR3040^5 (see Table I)

[1] = system: LTD4-induced bronchoconstriction; assay: LTD4-induced bronchoconstriction in anaesthetized guinea-pigs; format: in vivo, guinea-pig; details: Cavia porcellus
Procedure: The leukotriene antagonistic effect was tested in vivo on LTD4 -induced bronchoconstriction in anaesthetized guinea-pigs^3. […] The ED50 values represent the dose inhibiting the leukotriene induced bronchoconstriction by 50%. The ED50 values were calculated by regression analysis of 2-3 doses.

[2] = absence of albumin, read-out: pIC50, binding of [^3 H]LTD4, absence of albumin (converted)
[3] = presence of 0.1% human serum albumin, read-out: pIC50, binding of [^3 H]LTD4, presence of albumin (converted)
[4] = iv, 10 min, i.v., 10 min before bronchoconstriction
[5] = po, 4 h before bronchoconstriction
[6] = po, 24 h before bronchoconstriction
[7] = po, 48 h before bronchoconstriction

| SMILES | IC50 (LTD4 receptor; [2]) | IC50 (LTD4 receptor; [3]) | ED50 [1, 4] [mg/kg] | ED50 [1, 5] [mg/kg] | ED50 [1, 6] [mg/kg] | ED50 [1, 7] [mg/kg] | ED50 ([1]; po, 72 h before bronchoconstriction) [mg/kg] |
| --- | --- | --- | --- | --- | --- | --- | --- |
| OC[C@@H](O)[C@@H](Nc1cccc(/C=C/c2ccc3cc(F)c(F)cc3n2)c1)c1ccccc1 [Example 8] | 1 nM | 0.501 nM | 0.18 |  | 14.9 | > 30 |  |
| OC[C@H](O)[C@H](Nc1cccc(/C=C/c2ccc3cc(F)c(F)cc3n2)c1)c1ccccc1 [Example 7, (+)-2R,3R-E-3-N-[3-2-(6,7-difluoroquinolin-2-yl)ethenyl]-phenylamino-3-phenyl-1,2-propandiol] | 1.58 nM | 0.794 nM | 0.058 | 1.64 | 4.64 | 9.73 | > 30 |

Further lines, with some results ahead:

| IC50 (LTD4 receptor; [2]) | IC50 (LTD4 receptor; [3]) | SMILES | ED50 [1, 4] [mg/kg] | ED50 [1, 5] [mg/kg] | ED50 [1, 6] [mg/kg] | ED50 [1, 7] [mg/kg] | ED50 ([1]; po, 72 h before bronchoconstriction) [mg/kg] |
| --- | --- | --- | --- | --- | --- | --- | --- |
| 3.98 nM | 1.26 nM and 2 nM | OC[C@@H](O)[C@@H](Nc1cccc(/C=C/c2ccc3ccc(Cl)cc3n2)c1)c1ccccc1 [Example 4] | 0.35 | 3.63 | 8.66 | > 30 |  |
| 5.01 nM and 6.31 nM | 3.98 nM and 2.51 nM | OC[C@H](O)[C@H](Nc1cccc(/C=C/c2ccc3ccc(Cl)cc3n2)c1)c1ccccc1 [Example 3] | 0.3 | 0.956 | 20.3 |  |  |
| 1.58 nM | 1.58 nM | OC[C@@H](O)[C@@H](Nc1cccc(/C=C/c2ccc3ccc(F)cc3n2)c1)c1ccccc1 [Example 6] |  |  |  |  |  |
| 3.98 nM | 2.51 nM | OC[C@H](O)[C@H](Nc1cccc(/C=C/c2ccc3ccc(F)cc3n2)c1)c1ccccc1 [Example 5] |  |  |  |  |  |
